Measurements reported in PMC11431963 (International Journal of Molecular Sciences, 2024).
One block for each molecule: values may come before it.

Legend:
murine Abcg2 = target: T1, murine Abcg2 (Mus musculus, UniProt Q7TMS5); test: Transepithelial transport assay in MDCK-II cells transduced with murine Abcg2; type: in vitro ADME
T1 sequence (Q7TMS5 1-657): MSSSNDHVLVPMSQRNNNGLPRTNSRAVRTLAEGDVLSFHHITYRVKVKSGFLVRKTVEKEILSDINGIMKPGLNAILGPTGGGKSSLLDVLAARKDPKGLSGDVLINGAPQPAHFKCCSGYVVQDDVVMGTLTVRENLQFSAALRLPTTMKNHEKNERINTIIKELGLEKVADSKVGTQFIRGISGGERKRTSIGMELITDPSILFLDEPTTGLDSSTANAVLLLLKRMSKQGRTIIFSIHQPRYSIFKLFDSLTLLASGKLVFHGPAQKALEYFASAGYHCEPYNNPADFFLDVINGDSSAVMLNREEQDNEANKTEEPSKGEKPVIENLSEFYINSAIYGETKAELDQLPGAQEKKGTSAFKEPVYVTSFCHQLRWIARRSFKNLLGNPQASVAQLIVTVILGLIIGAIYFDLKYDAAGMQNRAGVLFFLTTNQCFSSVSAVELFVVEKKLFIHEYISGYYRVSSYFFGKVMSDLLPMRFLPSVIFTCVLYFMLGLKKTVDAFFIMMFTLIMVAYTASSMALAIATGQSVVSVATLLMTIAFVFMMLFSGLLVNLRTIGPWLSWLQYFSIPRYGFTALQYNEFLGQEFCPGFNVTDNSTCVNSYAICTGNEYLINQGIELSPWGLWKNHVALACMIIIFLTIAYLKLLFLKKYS
Procedure: (§1) For in vitro assays, the polarized cell line Madin-Darby canine kidney (MDCK-II) and their murine Abcg2 and human ABCG2 transduced subclones, which were previously generated and provided by A.H. Schinkel from the Netherlands Cancer Institute (Amsterdam, The Netherlands), were used.
(§2) Transcellular transport assays were performed as previously described, with minor modifications (Figure S1). Transduced MDCK-II cells were seeded as a monolayer on microporous membrane filters (3.0 μm pore size, 24 mm diameter; Transwell® 3414; Costar, Corning, NY, USA) at a density of 1.0 x 10^6 cells/well. Cells were grown for three days with daily medium replacement.
(§3) During the experiment, quality controls were performed in terms of monolayer tightness at the beginning and end of the assay using Millicell®ERS (Millipore, Burlington, MA, USA), and monolayer confluence was tested at the end of the experiment by means of Lucifer Yellow permeability. Transport proficiency was simultaneously checked by testing a typical ABCG2 substrate (danofloxacin 10 μM) (Table S1).
(§4) (to verify that the potential transport was specifically due to ABCG2). […] This volume was replaced with fresh Opti-MEM medium. Finally, at t = 4 h 600 µL aliquots were taken from the apical and basal compartments of each well. All samples were stored at −20 °C until being analyzed by high-performance liquid chromatography (HPLC), as described below.
(§5) The relative efflux transport ratio was calculated as the basal to apical directed transport percentage divided by the apical to basal directed transport percentage at 4 h.
(§6) Tissue samples were homogenized with a mixture of 50% water:50% methanol with 0.5% HCl; 1 mL of solution per 0.1 g of organ was used. To each 100 µL of plasma, milk or tissue homogenate, 10 µL of an albendazole-2-aminosulfone solution (100 µg/mL) was added as an internal standard and 400 µL of acetonitrile was also added in order to precipitate proteins. After 10 min of being horizontally vortexed, samples were centrifuged at 10,500× g for 10 min at 4 °C. Supernatants were evaporated to dryness at 40 °C under a stream of nitrogen. Samples were reconstituted in 100 µL of cold methanol and injected into the HPLC system. However, samples for in vitro assays were directly injected into the HPLC system.
(§7) The chromatographic system used for sample analysis consisted of a Waters 2695 separation module and a Waters 2998 UV photodiode array detector. Separation of samples was performed on an analytical reversed-phase column (5 µm particle size, 250 × 4.6 mm, EVO C18 100 Å, Phenomenex®, Torrance, CA, USA). The mobile phase used for in vitro samples was trifluoroacetic acid 0.04%:methanol (40:60), whereas for in vivo samples, it was ammonium acetate 25 mM (pH 5):acetonitrile (85:15). In both cases, the flow rate was set to 1.00 mL/min and UV absorbance was measured at 260.3 nm.

[1] = Transepithelial transport assay in parental MDCK-II cells; type: in vitro ADME, canine; details: dog, danofloxacin 10 µM, positive control, read-out: Transport ratio (BA/AB)
Procedure: as §1, §2, §3, §4
(§8) Lumichrome appearance in the opposite compartment is presented as the fraction of total compound added at the beginning of the experiment and expressed as percentage. The relative efflux transport ratio was calculated as the basal to apical directed transport percentage divided by the apical to basal directed transport percentage at 4 h.

parental MDCK-II cells = test: as above; type: in vitro ADME, canine; details: danofloxacin 10 µM, positive control, 4 h
Procedure: as §1, §2, §3, §4, §8

Abcg2 (BCRP) [2] = target: T2, Abcg2 (BCRP) (Mus musculus, UniProt Q7TMS5); test: Transepithelial transport assay in MDCK-II cells transduced with murine Abcg2; type: in vitro ADME; details: mouse; danofloxacin 10 µM, positive control, 4 h, MDCK-II mABCG2; read-out: Transport ratio (BA/AB)
T2 sequence (Q7TMS5 1-657): T1 sequence (Q7TMS5 1-657)
Procedure: as §1, §2, §3, §4, §5, §6, §7

ABCG2 (BCRP) [3] = target: T3, ABCG2 (BCRP) (Homo sapiens, UniProt Q9UNQ0); test: Transepithelial transport assay in MDCK-II cells transduced with human ABCG2; type: in vitro ADME; details: human; danofloxacin 10 µM, positive control, 4 h, MDCK-II hABCG2; read-out: Transport ratio (BA/AB)
T3 sequence (Q9UNQ0 1-655): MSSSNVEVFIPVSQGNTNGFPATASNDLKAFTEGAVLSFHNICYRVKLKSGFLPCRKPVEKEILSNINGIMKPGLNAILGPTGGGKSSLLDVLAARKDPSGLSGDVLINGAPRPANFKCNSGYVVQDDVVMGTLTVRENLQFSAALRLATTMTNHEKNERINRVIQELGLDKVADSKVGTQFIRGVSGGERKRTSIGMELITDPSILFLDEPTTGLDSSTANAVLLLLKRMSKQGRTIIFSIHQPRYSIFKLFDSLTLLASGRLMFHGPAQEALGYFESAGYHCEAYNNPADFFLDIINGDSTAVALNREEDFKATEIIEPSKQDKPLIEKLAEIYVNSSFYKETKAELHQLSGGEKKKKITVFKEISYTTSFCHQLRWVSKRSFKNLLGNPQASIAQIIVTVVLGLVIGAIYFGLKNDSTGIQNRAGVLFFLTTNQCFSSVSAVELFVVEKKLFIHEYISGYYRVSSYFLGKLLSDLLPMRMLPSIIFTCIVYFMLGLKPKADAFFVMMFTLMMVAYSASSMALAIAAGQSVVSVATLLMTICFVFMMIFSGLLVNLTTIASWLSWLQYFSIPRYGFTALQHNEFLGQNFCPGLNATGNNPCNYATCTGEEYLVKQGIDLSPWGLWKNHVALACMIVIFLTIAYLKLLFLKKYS
Procedure: as §1, §2, §3, §4, §5, §6
as §7, with “The mobile phase used for in vitro samples was trifluoroacetic acid 0.04%:methanol (40:60), whereas for in vivo samples, it was ammonium acetate 25 mM (pH 5):acetonitrile (85:15).” left out

human ABCG2 = target: T4, human ABCG2 (Homo sapiens, UniProt Q9UNQ0); test: as above; type: in vitro ADME
T4 sequence (Q9UNQ0 1-655): T3 sequence (Q9UNQ0 1-655)
Procedure: as §1, §2, §3, §4, §5, §6
as §7, with “The mobile phase used for in vitro samples was trifluoroacetic acid 0.04%:methanol (40:60), whereas for in vivo samples, it was ammonium acetate 25 mM (pH 5):acetonitrile (85:15).” left out

[4] = Plasma levels in wild-type and Abcg2-/- male mice after intraperitoneal administration; details: for concentration at 45 min / concentration at 60 min: Plasma concentration
Source text: (§9) Animals were handled according to institutional and ARRIVE guidelines complying with European legislation (2010/63/EU). Experimental procedures were approved by the Animal Care and Use Committee of the University of León and the Junta de Castilla y León (ULE_010_2021). Abcg2^-/- and wild-type mice were used, all of >99% FVB/N genetic background, generated and kindly supplied by A. H. Schinkel (The Netherlands Cancer Institute).
(§10) All animals, which were aged from 9 to 14 weeks and weighed 30 g, were kept in a temperature-controlled environment with a cycle of 12 h of light and 12 h of darkness and received a standard diet and water ad libitum.
(§11) Blood samples were collected at different time points (5, 10, 20, 30, 45, 60, 90 and 120 min) by cardiac puncture under anesthesia with isoflurane. Organs were harvested at the 60 min time point. All animals were euthanized by cervical dislocation at the end of the experimental procedure. Heparinized blood samples were centrifuged immediately at 3000× g for 15 min. Plasma and organs were stored at −20 °C until HPLC analysis. Three to ten animals were used for each time point.
as §6, §7

[5] = Tissue distribution in wild-type and Abcg2-/- male mice; details: 10 mg/kg intraperitoneal; for concentration at 60 min: male, FVB/N, mouse, in vivo, ip, 10 mg/kg
Source text: as §9, §10, §11, §6, §7

in vivo = details: female, FVB/N, mouse, ip, 10 mg/kg, 10 mg/kg intraperitoneal
Source text: as §9, §10
Pups of approximately 10 days old were separated from their mothers four hours before the onset of the experiment. […] Milk secretion was stimulated by oxytocin (200 μL of a 1 UI/mL solution), subcutaneously injected to lactating mice 10 min before sample collection. […] Animals were euthanized by cervical dislocation at the end of the experiment. Four to five animals were used for each group.
Heparinized blood samples were centrifuged immediately at 3000× g for 15 min to obtain plasma. Milk and plasma were also stored at −20 °C until HPLC analysis.
as §6, §7

[6] = tested on: non-small-cell lung cancer (NSCLC) cell lines; details: p53-dependent mechanisms; cited from earlier work
HepG2 = details: liver cancer cell line HepG2; cited from earlier work
MCF-7 = details: breast cancer cell line MCF-7; cited from earlier work
Colo-205 = details: colorectal cancer cell line Colo-205; cited from earlier work
[7] = danofloxacin 10 µM, positive control, 4 h, MDCK-II mABCG2
[8] = danofloxacin 10 µM, positive control, 4 h, MDCK-II hABCG2
[9] = male, FVB/N, mouse, in vivo, ip, 10 mg/kg, Abcg2-/- male mice, 10 mg/kg intraperitoneal
[10] = male, FVB/N, mouse, in vivo, ip, 10 mg/kg, wild-type male mice, 10 mg/kg intraperitoneal

SMILES: COc1ccc2c3c([nH]c2c1)[C@H](CC(C)C)N1C(=O)[C@H](CCC(=O)OC(C)(C)C)NC(=O)[C@@H]1C3 [Ko143]
Inhibition of ABCG2-mediated transport of lumichrome (murine Abcg2; Ko143 1 µM, lumichrome 10 µM, murine Abcg2 subclone): completely inhibited

efflux ratio at 4 h, 10 µM [1]: 0.96 ± 0.08
AB transport (%) (parental MDCK-II cells): 22.84 ± 2.99%
BA transport (%) (parental MDCK-II cells): 21.82 ± 1.79%
efflux ratio at 4 h, 10 µM (Abcg2 (BCRP) [2]): 9.24 ± 2.59
AB transport (%) (murine Abcg2; [7]): 5.30 ± 1.97%
BA transport (%) (murine Abcg2; [7]): 45.77 ± 6.49%
efflux ratio at 4 h, 10 µM (ABCG2 (BCRP) [3]): 2.04 ± 0.57
AB transport (%) (human ABCG2; [8]): 17.22 ± 2.98%
BA transport (%) (human ABCG2; [8]): 33.94 ± 4.07%
SMILES: CN1C[C@@H]2C[C@H]1CN2c1cc2c(cc1F)c(=O)c(C(=O)O)cn2C1CC1 [danofloxacin]

In vitro transport by the transporter (substrate) (murine Abcg2; lumichrome 10 µM, murine variant): efficiently transported
In vitro transport by the transporter (substrate) (human ABCG2; lumichrome 10 µM, human variant): efficiently transported
Plasma AUC 20–120 min ([4]; Abcg2-/- male mice, 10 mg/kg intraperitoneal): 1290 ± 110 ng·h/mL
AUC ([4]; male, FVB/N, mouse, in vivo, ip, 10 mg/kg): 720 ± 50 ng·h/mL
concentration at 45 min [4, 9]: 1020 ± 260 ng/mL
concentration at 60 min [4, 9]: 850 ± 500 ng/mL
concentration at 45 min [4, 10]: 390 ± 240 ng/mL
concentration at 60 min [4, 10]: 400 ± 130 ng/mL
concentration at 60 min ([5]; Concentration in liver, Abcg2-/- male mice): 340 ± 120 ng/mL
concentration at 60 min ([5]; Concentration in liver, wild-type male mice): 150 ± 70 ng/mL
concentration at 60 min ([5]; Concentration in small intestine content, Abcg2-/- male mice): 310 ± 110 ng/mL
concentration at 60 min ([5]; Concentration in small intestine content, wild-type male mice): 850 ± 350 ng/mL
concentration at 60 min ([5]; Concentration in testis, Abcg2-/- male mice): 180 ± 50 ng/mL
concentration at 60 min ([5]; Concentration in testis, wild-type male mice): 80 ± 60 ng/mL
concentration at 30 min (in vivo; Milk concentration, Abcg2-/- lactating female mice): 430 ± 180 ng/mL
concentration at 30 min (in vivo; Milk concentration, wild-type lactating female mice): 1750 ± 730 ng/mL
concentration at 30 min (in vivo; Plasma concentration, Abcg2-/- lactating female mice): 280 ± 100 ng/mL
concentration at 30 min (in vivo; Plasma concentration, wild-type lactating female mice): 310 ± 60 ng/mL
SMILES: Cc1cc2nc3[nH]c(=O)[nH]c(=O)c3nc2cc1C [lumichrome]
Tissue distribution (liver, kidney, small intestine, small intestine content, spleen, brain, testis) ([5]; male mice, 60 min): widely distributed in all organs analyzed
Concentration suppressing growth and inducing apoptosis [6]: above 25 µM
Concentration showing significant cytotoxic activity (HepG2): higher than 40 µM
Concentration showing significant cytotoxic activity (MCF-7): higher than 40 µM
Concentration showing significant cytotoxic activity (Colo-205): higher than 40 µM
